{"source": "paper PMC3942486", "about": "“The Ansamycin Antibiotic, Rifamycin SV, Inhibits BCL6 Transcriptional Repression and Forms a Complex with the BCL6-BTB/POZ Domain” (PLoS ONE, 2014)", "format_in_all_cases": "binding", "key": {"BCL6-POZ domain [1]": {"target": "T1, BCL6-POZ domain (Homo sapiens, UniProt P41182, C67R/C84N/C8Q)", "T1 construct": "POZ domain (residues 7 to 128)", "assay": "X-ray crystal structure ([…] Å); 1H-15N TROSY-HSQC NMR titration"}, "BCL6-POZ domain [2]": {"target": "T2, BCL6-POZ domain (Homo sapiens, UniProt P41182, C8Q/C67R/C84N)", "T2 construct": "POZ domain (residues 7 to 128)", "assay": "1H-15N TROSY-HSQC NMR chemical shift perturbation"}, "BCL6-POZ domain [3]": {"target": "T2, BCL6-POZ domain", "assay": "1H-15N TROSY-HSQC NMR chemical shift perturbation; also relieves BCL6 repression in HEK293T luciferase reporter assay"}, "BCL6-POZ domain [4]": {"target": "T2, BCL6-POZ domain", "assay": "1H-15N TROSY-HSQC NMR chemical shift perturbation (weakest of the series)"}}}
{"smiles": "CO[C@H]1/C=C/O[C@@]2(C)Oc3c(C)c(O)c4c(c3C2=O)C2=NC3(CCN(CC(C)C)CC3)NC2=C(NC(=O)/C(C)=C\\C=C\\[C@H](C)[C@H](O)[C@@H](C)[C@@H](O)[C@@H](C)[C@H](OC(C)=O)[C@@H]1C)C4=O", "note": "[rifabutin]", "values": [{"measurement": "Kd", "setting": "BCL6-POZ domain [1]", "value": "~1000", "unit": "µM"}]}
{"smiles": "CO[C@H]1/C=C/O[C@@]2(C)Oc3c(C)c(O)c4c(O)c(c(/C=N/N5CCN(C)CC5)c(O)c4c3C2=O)NC(=O)/C(C)=C\\C=C\\[C@H](C)[C@H](O)[C@@H](C)[C@@H](O)[C@@H](C)[C@H](OC(C)=O)[C@@H]1C", "note": "[rifampicin]", "values": [{"measurement": "1H-15N TROSY-HSQC NMR chemical shift perturbation", "setting": "BCL6-POZ domain [2]", "value": "These derivatives all caused spectral changes of varying magnitude with the greatest shifts caused by rifabutin"}]}
{"smiles": "CO[C@H]1/C=C/O[C@@]2(C)Oc3c(C)c(O)c4c(O)c(cc(O)c4c3C2=O)NC(=O)/C(C)=C\\C=C\\[C@H](C)[C@H](O)[C@@H](C)[C@@H](O)[C@@H](C)[C@H](OC(C)=O)[C@@H]1C", "note": "[rifamycin SV]", "values": [{"measurement": "1H-15N TROSY-HSQC NMR chemical shift perturbation; also relieves BCL6 repression", "setting": "BCL6-POZ domain [3]", "value": "resulted in a subset of peaks shifting in a concentration dependent manner"}]}
{"smiles": "CO[C@H]1/C=C/O[C@@]2(C)Oc3c(C)c(O)c4c(O)c(c(/C=N/N5CCN(C6CCCC6)CC5)c(O)c4c3C2=O)NC(=O)/C(C)=C\\C=C\\[C@H](C)[C@H](O)[C@@H](C)[C@@H](O)[C@@H](C)[C@H](OC(C)=O)[C@@H]1C", "note": "[rifapentine]", "values": [{"measurement": "1H-15N TROSY-HSQC NMR chemical shift perturbation", "setting": "BCL6-POZ domain [2]", "value": "order of binding from weakest to strongest was: rifaximin, rifapentine, 3-formyl rifamycin, rifampicin, rifamycin SV and rifabutin"}]}
{"smiles": "CO[C@H]1/C=C/O[C@@]2(C)Oc3c(C)c(O)c4c(O)c(c5c(nc6cc(C)ccn65)c4c3C2=O)NC(=O)/C(C)=C\\C=C\\[C@H](C)[C@H](O)[C@@H](C)[C@@H](O)[C@@H](C)[C@H](OC(C)=O)[C@@H]1C", "note": "[rifaximin]", "values": [{"measurement": "1H-15N TROSY-HSQC NMR chemical shift perturbation (weakest of the series)", "setting": "BCL6-POZ domain [4]", "value": "order of binding from weakest to strongest was: rifaximin, rifapentine, 3-formyl rifamycin, rifampicin, rifamycin SV and rifabutin"}]}
